Measurements reported in article PMC5341070, “Small molecule inhibitors block Gas6-inducible TAM activation and tumorigenicity” (Scientific Reports, 2017).

Columns and labels:
[1] = target: PDGFRB (Homo sapiens, UniProt P09619); assay: KINOMEscan profiling at […]; type: binding; parameters: gene PDGFRB; kinase domain
[2] = target: T1, RET (Homo sapiens, UniProt P07949); assay: KINOMEscan profiling at […]; type: binding
T1 construct: kinase domain

[3] = target: T2, KIT (Homo sapiens, UniProt P10721)
Target sequence in this assay (P10721 589-937 limits assumed): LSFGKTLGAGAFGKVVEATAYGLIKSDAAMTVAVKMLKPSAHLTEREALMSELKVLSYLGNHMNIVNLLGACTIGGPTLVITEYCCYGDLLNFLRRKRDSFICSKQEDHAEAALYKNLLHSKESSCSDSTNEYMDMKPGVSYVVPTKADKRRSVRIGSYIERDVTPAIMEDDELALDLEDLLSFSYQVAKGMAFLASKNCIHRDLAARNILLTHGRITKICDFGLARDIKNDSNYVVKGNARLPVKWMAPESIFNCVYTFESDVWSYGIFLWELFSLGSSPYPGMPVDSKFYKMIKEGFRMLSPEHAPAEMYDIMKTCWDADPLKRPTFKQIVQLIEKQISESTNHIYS

[4] = target: T3, FLT3 (Homo sapiens, UniProt P36888); assay: KINOMEscan profiling at […]; type: binding
T3 construct: kinase domain
T3 sequence (P36888 564-993 limits assumed): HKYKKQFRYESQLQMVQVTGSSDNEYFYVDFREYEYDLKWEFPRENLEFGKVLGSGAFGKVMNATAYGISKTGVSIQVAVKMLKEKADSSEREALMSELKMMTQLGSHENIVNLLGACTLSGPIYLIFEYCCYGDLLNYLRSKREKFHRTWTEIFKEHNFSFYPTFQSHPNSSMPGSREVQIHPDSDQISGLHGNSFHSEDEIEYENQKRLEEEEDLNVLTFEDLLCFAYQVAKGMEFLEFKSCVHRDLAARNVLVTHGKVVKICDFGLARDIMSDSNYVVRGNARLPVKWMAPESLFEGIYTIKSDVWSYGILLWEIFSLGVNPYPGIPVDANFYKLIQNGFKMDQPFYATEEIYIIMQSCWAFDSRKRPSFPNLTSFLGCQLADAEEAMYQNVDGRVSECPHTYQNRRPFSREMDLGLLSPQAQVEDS

[5] = target: VEGFR2 (Homo sapiens, UniProt P35968); assay: KINOMEscan profiling at […]; type: binding; parameters: gene KDR; kinase domain
[6] = target: TIE2 (Homo sapiens, UniProt Q02763); assay: KINOMEscan profiling at […]; type: binding; parameters: gene TEK; kinase domain
Sequence of TIE2 (Q02763 770-1124 limits assumed): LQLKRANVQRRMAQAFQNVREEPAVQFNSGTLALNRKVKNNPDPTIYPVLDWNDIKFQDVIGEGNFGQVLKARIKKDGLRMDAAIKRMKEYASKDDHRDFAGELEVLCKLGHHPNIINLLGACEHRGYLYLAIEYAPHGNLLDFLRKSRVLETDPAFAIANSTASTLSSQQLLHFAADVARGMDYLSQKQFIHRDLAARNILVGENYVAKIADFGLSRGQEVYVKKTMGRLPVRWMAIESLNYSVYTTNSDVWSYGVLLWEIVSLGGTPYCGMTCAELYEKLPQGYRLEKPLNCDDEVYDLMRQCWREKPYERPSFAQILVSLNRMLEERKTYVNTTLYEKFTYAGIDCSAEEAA

[7] = target: AXL (Homo sapiens, UniProt P30530); assay: biochemical; parameters: KINOMEscan (DiscoverX) competition binding screen of 97 human kinases, percent of control at 10 uM; conditions: binding competition, % of control; binder
Method: (§1) The KINOMEscan profiling of the inhibitors were performed as per directions by the manufacturer (DiscoverX) against a panel of human protein kinases.
Target sequence in this assay (P30530 whole entry): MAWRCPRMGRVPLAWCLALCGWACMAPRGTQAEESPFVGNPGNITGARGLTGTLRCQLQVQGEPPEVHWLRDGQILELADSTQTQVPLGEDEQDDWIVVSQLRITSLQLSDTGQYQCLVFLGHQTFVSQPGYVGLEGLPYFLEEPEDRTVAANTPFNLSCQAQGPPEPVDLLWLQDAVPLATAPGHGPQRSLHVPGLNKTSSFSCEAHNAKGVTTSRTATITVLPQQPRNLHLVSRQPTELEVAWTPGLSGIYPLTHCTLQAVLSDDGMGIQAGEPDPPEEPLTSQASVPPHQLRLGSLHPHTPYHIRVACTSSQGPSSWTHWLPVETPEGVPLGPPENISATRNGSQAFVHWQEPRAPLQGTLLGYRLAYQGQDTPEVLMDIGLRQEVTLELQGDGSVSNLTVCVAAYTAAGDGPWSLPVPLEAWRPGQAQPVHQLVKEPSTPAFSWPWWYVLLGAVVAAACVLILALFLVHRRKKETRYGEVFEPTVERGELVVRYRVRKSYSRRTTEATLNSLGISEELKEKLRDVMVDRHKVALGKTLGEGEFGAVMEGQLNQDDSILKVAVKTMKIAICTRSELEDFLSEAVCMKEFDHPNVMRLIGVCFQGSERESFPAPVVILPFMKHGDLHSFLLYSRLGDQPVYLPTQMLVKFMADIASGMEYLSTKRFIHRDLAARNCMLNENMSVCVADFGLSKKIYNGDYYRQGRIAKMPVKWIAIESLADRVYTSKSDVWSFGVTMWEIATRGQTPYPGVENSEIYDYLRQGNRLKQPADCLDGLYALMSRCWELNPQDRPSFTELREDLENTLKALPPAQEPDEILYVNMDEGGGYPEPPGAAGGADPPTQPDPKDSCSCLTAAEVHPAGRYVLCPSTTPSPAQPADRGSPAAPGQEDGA

[8] = target: T4, Abl (Homo sapiens, UniProt P00519); assay: KINOMEscan profiling at […]; type: binding
T4 construct: gene ABL1; kinase domain
T4 sequence (P00519 242-493 limits assumed): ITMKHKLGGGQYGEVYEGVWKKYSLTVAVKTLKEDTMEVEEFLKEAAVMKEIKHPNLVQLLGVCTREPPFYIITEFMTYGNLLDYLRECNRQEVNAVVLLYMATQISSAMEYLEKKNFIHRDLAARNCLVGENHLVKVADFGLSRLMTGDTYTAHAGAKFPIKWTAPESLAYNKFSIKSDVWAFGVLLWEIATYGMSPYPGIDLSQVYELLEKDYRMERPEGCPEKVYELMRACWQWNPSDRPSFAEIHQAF

[9] = target: T5, Axl (Homo sapiens, UniProt P30530+Q14393); assay: Gas6-induced hAxl/IFN-γR1 CHO reporter (pSTAT1) inhibition; sAxl-Gas6 pull-down partially inhibited; type: cell-based
T5 construct: extracellular and trans-membrane domain of Axl fused to IFN-γR1 intracellular domain; with Gas6

[10] = target: T2, KIT; assay: biochemical; parameters: KINOMEscan (DiscoverX) competition binding screen of 97 human kinases, percent of control at 10 uM; conditions: binding competition, % of control; read-out: RU-301 %Ctrl @ 10000nM
Method: as §1
Target sequence in this assay (P10721 whole entry): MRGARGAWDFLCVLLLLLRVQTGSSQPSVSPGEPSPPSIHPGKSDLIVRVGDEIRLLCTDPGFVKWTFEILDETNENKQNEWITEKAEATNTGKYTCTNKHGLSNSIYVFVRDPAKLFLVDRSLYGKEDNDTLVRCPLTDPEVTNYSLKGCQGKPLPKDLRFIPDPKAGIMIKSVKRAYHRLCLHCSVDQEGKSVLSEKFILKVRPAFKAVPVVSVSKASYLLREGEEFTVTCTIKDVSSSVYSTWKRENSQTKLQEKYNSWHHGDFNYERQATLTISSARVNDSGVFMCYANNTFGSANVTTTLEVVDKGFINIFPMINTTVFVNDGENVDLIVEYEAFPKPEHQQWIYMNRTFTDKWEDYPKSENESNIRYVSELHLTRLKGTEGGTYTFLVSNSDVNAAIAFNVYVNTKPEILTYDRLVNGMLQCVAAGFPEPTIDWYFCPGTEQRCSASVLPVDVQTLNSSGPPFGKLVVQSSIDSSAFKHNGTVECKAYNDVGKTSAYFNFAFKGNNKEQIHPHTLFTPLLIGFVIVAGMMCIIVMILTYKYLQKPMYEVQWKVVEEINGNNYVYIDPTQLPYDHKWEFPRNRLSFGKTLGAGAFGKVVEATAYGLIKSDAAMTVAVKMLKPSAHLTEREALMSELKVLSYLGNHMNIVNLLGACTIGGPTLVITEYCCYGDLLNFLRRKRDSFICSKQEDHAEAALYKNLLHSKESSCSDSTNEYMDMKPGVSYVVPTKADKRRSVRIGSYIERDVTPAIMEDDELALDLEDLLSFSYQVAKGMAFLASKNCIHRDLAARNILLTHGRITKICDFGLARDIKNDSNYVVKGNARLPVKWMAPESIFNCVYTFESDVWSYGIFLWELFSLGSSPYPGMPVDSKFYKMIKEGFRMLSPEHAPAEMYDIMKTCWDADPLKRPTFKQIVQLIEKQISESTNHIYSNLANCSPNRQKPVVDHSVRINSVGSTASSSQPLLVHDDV

[11] = target: AXL (Homo sapiens, UniProt P30530); assay: biochemical; parameters: KINOMEscan (DiscoverX) competition binding screen of 97 human kinases, percent of control at 10 uM; conditions: binding competition, % of control; read-out: RU-301 %Ctrl @ 10000nM
Method: as §1
Target sequence in this assay (P30530 whole entry): as the sequence (P30530 whole entry) above

[12] = target: FLT3 (Homo sapiens, UniProt P36888); assay: biochemical; parameters: KINOMEscan (DiscoverX) competition binding screen of 97 human kinases, percent of control at 10 uM; conditions: binding competition, % of control; read-out: RU-301 %Ctrl @ 10000nM
Method: as §1
Target sequence in this assay (P36888 whole entry, the tested form may be a part): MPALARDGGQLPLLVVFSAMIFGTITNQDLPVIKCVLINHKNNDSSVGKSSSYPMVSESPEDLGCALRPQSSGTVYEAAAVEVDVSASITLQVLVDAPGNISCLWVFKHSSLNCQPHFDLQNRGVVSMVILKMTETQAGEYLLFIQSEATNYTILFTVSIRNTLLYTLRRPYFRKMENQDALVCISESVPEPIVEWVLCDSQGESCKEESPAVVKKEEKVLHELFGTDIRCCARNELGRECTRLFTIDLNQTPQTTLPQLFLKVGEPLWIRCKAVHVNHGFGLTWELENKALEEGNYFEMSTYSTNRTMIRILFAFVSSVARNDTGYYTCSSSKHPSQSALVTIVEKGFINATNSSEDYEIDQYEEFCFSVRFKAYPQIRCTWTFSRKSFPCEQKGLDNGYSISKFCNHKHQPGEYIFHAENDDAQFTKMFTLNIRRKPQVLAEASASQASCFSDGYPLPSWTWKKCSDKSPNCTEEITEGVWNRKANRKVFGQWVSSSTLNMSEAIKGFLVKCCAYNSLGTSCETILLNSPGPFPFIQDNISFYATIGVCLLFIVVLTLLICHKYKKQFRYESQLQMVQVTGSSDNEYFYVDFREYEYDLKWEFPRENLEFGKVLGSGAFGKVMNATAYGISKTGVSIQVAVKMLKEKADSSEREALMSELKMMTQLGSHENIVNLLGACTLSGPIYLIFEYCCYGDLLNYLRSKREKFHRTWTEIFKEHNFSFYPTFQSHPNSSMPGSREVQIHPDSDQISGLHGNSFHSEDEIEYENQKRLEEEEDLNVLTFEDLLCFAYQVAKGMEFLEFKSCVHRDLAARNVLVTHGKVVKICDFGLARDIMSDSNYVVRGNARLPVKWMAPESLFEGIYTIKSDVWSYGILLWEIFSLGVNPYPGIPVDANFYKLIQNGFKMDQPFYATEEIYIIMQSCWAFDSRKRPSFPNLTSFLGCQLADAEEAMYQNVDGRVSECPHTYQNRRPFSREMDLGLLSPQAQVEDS

[13] = target: T6, ABL1-phosphorylated (Homo sapiens, UniProt P00519); assay: biochemical; parameters: KINOMEscan (DiscoverX) competition binding screen of 97 human kinases, percent of control at 10 uM; conditions: binding competition, % of control; read-out: RU-301 %Ctrl @ 10000nM
T6 construct: phosphorylated
Method: as §1

Sequence of PDGFRB (P09619 600-962 limits assumed): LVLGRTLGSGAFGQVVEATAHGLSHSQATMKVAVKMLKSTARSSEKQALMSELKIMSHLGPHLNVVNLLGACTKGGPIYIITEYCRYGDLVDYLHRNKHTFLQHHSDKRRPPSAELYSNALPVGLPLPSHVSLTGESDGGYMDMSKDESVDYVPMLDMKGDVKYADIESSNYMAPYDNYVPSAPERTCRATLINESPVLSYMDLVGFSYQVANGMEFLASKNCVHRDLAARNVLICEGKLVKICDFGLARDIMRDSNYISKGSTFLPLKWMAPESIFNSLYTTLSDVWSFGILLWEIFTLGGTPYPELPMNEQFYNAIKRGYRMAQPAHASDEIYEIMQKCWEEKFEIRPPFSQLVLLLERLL
T1 sequence (P07949 724-1016 limits assumed): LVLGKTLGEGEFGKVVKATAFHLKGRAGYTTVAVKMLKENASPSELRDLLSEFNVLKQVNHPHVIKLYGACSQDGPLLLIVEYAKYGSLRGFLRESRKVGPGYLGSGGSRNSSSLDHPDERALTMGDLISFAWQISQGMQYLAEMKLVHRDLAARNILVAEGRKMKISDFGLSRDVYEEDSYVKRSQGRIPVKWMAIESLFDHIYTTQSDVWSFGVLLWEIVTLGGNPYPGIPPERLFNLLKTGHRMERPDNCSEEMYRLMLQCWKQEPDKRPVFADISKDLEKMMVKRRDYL

## Nc1nc(Nc2ccc3c(c2)CC[C@@H](N2CCCC2)CC3)nn1-c1cc2c(nn1)-c1ccccc1CCC2 [R428]
[1]
  KINOMEscan profiling at 10 uM: R428 also bound to several other kinases, including Abl, Aurora kinases, KIT, PDGFR A and B
[2]
  KINOMEscan profiling at 10 uM: R428 also bound to several other kinases, including Abl, Aurora kinases, KIT, PDGFR A and B, RET
[3]
  KINOMEscan profiling at 10 uM: R428 also bound to several other kinases, including Abl, Aurora kinases, KIT
[4]
  KINOMEscan profiling at 10 uM: KIT, PDGFR A and B, RET, TIE2, VEGFR2, JAK2, JAK3 and FLT3 kinases
[5]
  KINOMEscan profiling at 10 uM: KIT, PDGFR A and B, RET, TIE2, VEGFR2, JAK2, JAK3 and FLT3 kinases
[6]
  KINOMEscan profiling at 10 uM: KIT, PDGFR A and B, RET, TIE2, VEGFR2, JAK2, JAK3 and FLT3 kinases
[7]
  R428 %Ctrl @ 10000nM: 0.1%
[8]
  KINOMEscan profiling at 10 uM: R428 also bound to several other kinases, including Abl, Aurora kinases, KIT

## Cc1cc(CSc2ccccc2C(=O)NCCNc2ccc(C(F)(F)F)cc2[N+](=O)[O-])on1 [RU-301]
[9]
  IC50: low micromolar
[10]
  remaining binding at 10 µM: 96%
[11]
  remaining binding at 10 µM: 89%
[12]
  remaining binding at 10 µM: 99%
[13]
  remaining binding at 10 µM: 81%
